Converted amounts (≈) assume the structure as drawn.
Assays:
Type in all cases: functional, cell-based
KB = experiment: Cytotoxicity against human KB cells after 1 to 11 days by MTT assay
Daoy = experiment: Cytotoxicity against human DaOY cells after 1 to 11 days by MTT assay
HeLa = experiment: Cytotoxicity against human HeLa cells after 1 to 11 days by MTT assay

Row | SMILES | IC50 (KB) | IC50 (Daoy) | IC50 (HeLa)
1 | C=C1C(=O)O[C@H]2/C=C(\C)CC/C=C(\C)CCC(=O)[C@]3(C)O[C@@H]3C[C@@H]12 [CRASSOCOLIDE N] | 4.7 µg/mL (≈ 14.2 µM) | 2.8 µg/mL (≈ 8.47 µM) | 4.7 µg/mL (≈ 14.2 µM)
2 | C=C1C(=O)O[C@H]2/C=C(\C)CC/C=C(\C)CCC(=O)/C(C)=C\C[C@@H]12 [CRASSOCOLIDE O] | > 20 µg/mL | 4.5 µg/mL (≈ 14.3 µM) | > 20 µg/mL
3 | C=C1C(=O)O[C@H]2/C=C(\C)CC/C=C(\C)CC[C@H](OC(C)=O)/C(C)=C\C[C@@H]12 [CRASSOCOLIDE P] | > 20 µg/mL | 1.9 µg/mL (≈ 5.3 µM) | 10.8 µg/mL (≈ 30.1 µM)
4 | CO[C@@]12[C@H](COC(N)=O)C3=C(C(=O)C(C)=C(N)C3=O)N1C[C@@H]1N[C@@H]12 [MITOMYCIN] | 0.08 µg/mL (≈ 0.239 µM) | 0.05 µg/mL (≈ 0.15 µM) | 0.06 µg/mL (≈ 0.179 µM)

From ChEMBL document CHEMBL1921772, “Crassocolides N-P, three cembranoids from the Formosan soft coral Sarcophyton crassocaule” (Bioorg Med Chem Lett, 2011)
